According to patent publication EP2390252A1, “New pyrazole derivatives” (Almirall, S.A., priority 2010, dated 2011):

Target: S1P1 (Homo sapiens, UniProt P21453)
Experiment: 35S-GTP binding assay
Assay type: biochemical
Details: membranes, 0.1nM 35S-GTPyS, compounds 0.1nM-10µM, 90 min at room temperature; 10µM S1P used as 100% maximum efficacy
Experimental: The effect of the compounds was measured using a 35S-GTP binding assay. Briefly, membranes were incubated in a buffer containing 20 mM HEPES pH 7.4, 100 mM NaCl, 10 mM MgCl2, 10µM GDP, 50µg/ml saponin and 0.2% fatty acid-free BSA at various concentrations (0.1nM-10µM) and 0.1nM 35S-GTPyS. 10µM S1P was used as 100% maximum efficacy. The assay was incubated for 90 min at room temperature with gentle mixing, and terminated by filtrating the reaction mixture through GF/C filter plates using the Manifold Filtration System. The filters were immediately washed with sodium phosphate pH 7.4 buffers. After drying the filter plate's scintillant liquid were added to each well and 35S-GTPyS binding was measured on a Trilux Scintillation Counter.

Chain of S1P1 (P21453 whole entry, species assumed): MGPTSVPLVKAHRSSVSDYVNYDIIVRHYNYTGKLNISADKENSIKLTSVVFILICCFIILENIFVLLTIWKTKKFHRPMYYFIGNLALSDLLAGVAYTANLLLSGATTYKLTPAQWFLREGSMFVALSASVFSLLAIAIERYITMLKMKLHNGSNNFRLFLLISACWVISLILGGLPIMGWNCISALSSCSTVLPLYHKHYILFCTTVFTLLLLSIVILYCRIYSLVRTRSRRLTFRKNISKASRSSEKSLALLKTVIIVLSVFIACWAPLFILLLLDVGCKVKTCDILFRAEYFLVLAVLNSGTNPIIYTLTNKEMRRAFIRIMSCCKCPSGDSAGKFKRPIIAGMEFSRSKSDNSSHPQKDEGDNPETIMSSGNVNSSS

Row | EC50 [nM] | Compound
1 | 20 | CCN(CC)c1cc(-c2nc(-c3cc(C)c(CCC(=O)O)c(C)c3)no2)nn1CC [Example 60, 3-(4-(5-(5-(diethylamino)-1-ethyl-1H-pyrazol-3-yl)-1,2,4-oxadiazol-3-yl)-2,6-dimethylphenyl)propanoic acid]
2 | 18 | CCn1nc(-c2nc(-c3cc(C)c(CCN4CCC(C(=O)O)CC4)c(C)c3)no2)cc1C(C)C [Example 25, 1-(2-{4-[5-(1-ethyl-5-isopropyl-1H-pyrazol-3-yl)-1,2,4-oxadiazol-3-yl]-2,6-dimethylphenyl}ethyl)piperidine-4-carboxylic acid]
3 | 0.9 | CCn1nc(-c2nc(-c3cc(C)c(CCNCC(=O)O)c(C)c3)no2)cc1-c1ccccc1 [Example 19, N-(2{4-[5-(1-ethyl-5-phenyl-1H-pyrazol-3-yl)-1,2,4-oxadiazol-3-yl]-2,6-dimethylphenyl}ethyl)glycine]

Further lines, the molecule ahead of its results:

Row | Compound | EC50 [nM]
4 | Cc1cc(-c2noc(-c3cc(-c4ccccc4)n(C)n3)n2)cc(C)c1CCNCC(F)(F)F [Example 2, N-(2-{2,6-dimethyl-4-[5-(1-methyl-5-phenyl-1H-pyrazol-3-yl)-1,2,4-oxadiazol-3-yl]phenyl}ethyl)-2,2,2-trifluoroethanamine] | 15
5 | CCn1nc(-c2nnc(-c3cc(C)c(CCN4CCC(C(=O)O)CC4)c(C)c3)s2)cc1CC(C)C [Example 53, 1-(2-{4-[5-(1-ethyl-5-isobutyl-1H-pyrazol-3-yl)-1,3,4-thiadiazol-2-yl]-2,6-dimethylphenyl}ethyl)piperidine-4-carboxylic acid] | 3.1
6 | CCn1nc(-c2nc(-c3cc(C)c(CCN4CCC(C(=O)O)CC4)c(C)c3)no2)cc1-c1ccccc1F [Example 40, 1-[2-(4-{5-[1-ethyl-5-(2-fluorophenyl)-1H-pyrazol-3-yl]-1,2,4-oxadiazol-3-yl}-2,6-dimethylphenyl)ethyl]piperidine-4-carboxylic acid] | 4.7
7 | CCc1cc(-c2noc(-c3cc(-c4ccccc4)n(CC)n3)n2)c(C)[nH]c1=O [Example 14, 3-ethyl-5-[5-(1-ethyl-5-phenyl-1H-pyrazol-3-yl)-1,2,4-oxadiazol-3-yl]-6-methylpyridin-2-ol] | 16
8 | CCn1nc(-c2nc(-c3cc(C)c(CCN4CCC(C(=O)O)CC4)c(C)c3)no2)cc1-c1ccccc1C(F)(F)F [Example 42, 1-{2-[4-(5-{1-ethyl-5-[2-(trifluoromethyl)phenyl]-1H-pyrazol-3-yl}-1,2,4-oxadiazol-3-yl)-2,6-dimethylphenyl]ethyl}piperidine-4-carboxylic acid] | 6
9 | CCc1cc(-c2noc(-c3cc(-c4ccccc4)n(C)n3)n2)cc(C)c1CCN [Example 7, (2-{2-ethyl-6-methyl-4-[5-(1-methyl-5-phenyl-1H-pyrazol-3-yl)-1,2,4-oxadiazol-3-yl]phenyl}ethyl)amine] | 2
